For one test, the target named is T1, human 5-HT3-C (Homo sapiens, UniProt Q8WXA8).
T1 construct: Characterization of the Function of Protein Encoded by p5HT3CR in Xenopus oocvtes; expressed in transfected cells; host or cells: Xenopus laevis oocytes injected with in vitro transcribed cRNA (pGEM HE)
T1 sequence (Q8WXA8 28-447): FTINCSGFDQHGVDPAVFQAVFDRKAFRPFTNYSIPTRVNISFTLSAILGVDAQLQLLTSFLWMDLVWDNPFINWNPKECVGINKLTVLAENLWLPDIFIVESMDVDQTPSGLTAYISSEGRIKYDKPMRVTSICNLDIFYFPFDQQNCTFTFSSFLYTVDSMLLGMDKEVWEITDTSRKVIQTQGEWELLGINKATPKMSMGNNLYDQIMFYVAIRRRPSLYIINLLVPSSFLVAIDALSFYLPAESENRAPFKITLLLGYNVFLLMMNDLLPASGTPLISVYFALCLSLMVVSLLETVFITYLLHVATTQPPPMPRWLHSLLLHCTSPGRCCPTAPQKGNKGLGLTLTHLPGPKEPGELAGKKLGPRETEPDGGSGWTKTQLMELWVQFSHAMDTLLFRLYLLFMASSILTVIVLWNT
Kind of test: Two-electrode voltage clamp, Xenopus oocytes injected with 5-HT3-C cRNA alone. It is filed as cell-based. How it is done:
Characterization of the Function of Protein Encoded by p5HT3CR in Xenopus oocvtes Xenopus laevis oocytes were prepared and injected using standard methods previously described and known in the art (Fraser et al., 1993). Ovarian lobes from adult female Xenopus laevis (Nasco, Fort Atkinson, Wis.) were teased apart, rinsed several times in nominally Ca-free saline containing (in mM): NaCl 82.5, KCl 2.5, MgCl2 1, HEPES 5, adjusted to pH 7.0 with NaOH(OR-2), and gently shaken in OR-2 containing 0.2% collagenase Type 1 (ICN Biomedicals, Aurora, Ohio) for 2–5 hours. When approximately 50% of the follicular layers were removed, Stage V and VI oocytes were selected and rinsed in media consisting of 75% OR-2 and 25% ND-96. The ND-96 contained (in mM): NaCl 100, KCl 2, MgCl2 1, CaCl2 1.8, HEPES 5, Na pyruvate 2.5, gentamicin (50 ug/ml), adjusted to pH 7.0 with NaOH. […] For in vitro transcription, pGEM HE (Liman et al., 1992) containing human 5-HT3-A (Genbank D49394) or 5-HT3-C cDNA was linearized with NheI and transcribed with T7 RNA polymerase (Stratagene) in the presence of the cap analog m7G(5′)ppp(5′)G. The synthesized cRNA was purified with a Sephadex G-50 spin column. […] Control oocytes were injected with 50 nl of water. Oocytes were incubated for 2–14 days in ND-96 before analysis for expression of the human 5-HT3-C. Incubations and collagenase digestion were carried out at room temperature. Injected oocytes were maintained in 48 well cell culture clusters (Costar, Cambridge, Mass.) at 18° C. Whole cell agonist-induced currents were measured 1–14 days after injection with a conventional two-electrode voltage clamp (GeneClamp500, Axon Instruments, Foster City, Calif.) using standard methods previously described and known in the art (Dascal, 1987). The microelectrodes were filled with 3 M KCl, which had resistances of 1 and 2 MΩ. Cells were continuously perfused with ND96 at 10 ml/min at room temperature unless indicated. Membrane voltage was clamped at −70 mV unless indicated.
On the technique in general: Two-electrode voltage clamp is typically applied to oocytes expressing channels or transporters.

Test [1] addresses T2, long form of human 5-HT3-A together with 5-HT3-C (Homo sapiens, UniProt P46098+Q8WXA8).
T2 construct: Characterization of the Function of Protein Encoded by p5HT3CR in Xenopus oocvtes; expressed in transfected cells; host or cells: Xenopus laevis oocytes co-injected with cRNAs
T2 sequence (P46098 24-510 isoform P46098-2): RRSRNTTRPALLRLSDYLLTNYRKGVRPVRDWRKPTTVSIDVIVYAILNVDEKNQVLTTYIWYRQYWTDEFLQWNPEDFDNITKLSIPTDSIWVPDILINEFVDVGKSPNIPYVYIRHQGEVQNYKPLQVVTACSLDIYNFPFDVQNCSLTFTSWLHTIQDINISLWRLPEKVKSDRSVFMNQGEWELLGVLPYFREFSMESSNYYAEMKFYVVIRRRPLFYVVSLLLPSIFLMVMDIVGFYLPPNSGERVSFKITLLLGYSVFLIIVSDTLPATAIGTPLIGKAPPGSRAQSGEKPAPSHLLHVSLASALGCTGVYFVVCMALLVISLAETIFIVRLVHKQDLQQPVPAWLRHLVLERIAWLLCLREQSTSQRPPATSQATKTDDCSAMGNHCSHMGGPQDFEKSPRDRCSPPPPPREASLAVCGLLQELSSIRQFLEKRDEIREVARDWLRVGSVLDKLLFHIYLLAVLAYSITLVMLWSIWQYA
T2 sequence (Q8WXA8 28-447): T1 sequence (Q8WXA8 28-447)
Briefly: Two-electrode voltage clamp, oocytes co-injected with long form of human 5-HT3-A and 5-HT3-C. It counts as cell-based. As to conditions: 10 μM; n=2. How it is done:
Characterization of the Function of Protein Encoded by p5HT3CR in Xenopus oocvtes Xenopus laevis oocytes were prepared and injected using standard methods previously described and known in the art (Fraser et al., 1993). Ovarian lobes from adult female Xenopus laevis (Nasco, Fort Atkinson, Wis.) were teased apart, rinsed several times in nominally Ca-free saline containing (in mM): NaCl 82.5, KCl 2.5, MgCl2 1, HEPES 5, adjusted to pH 7.0 with NaOH(OR-2), and gently shaken in OR-2 containing 0.2% collagenase Type 1 (ICN Biomedicals, Aurora, Ohio) for 2–5 hours. When approximately 50% of the follicular layers were removed, Stage V and VI oocytes were selected and rinsed in media consisting of 75% OR-2 and 25% ND-96. The ND-96 contained (in mM): NaCl 100, KCl 2, MgCl2 1, CaCl2 1.8, HEPES 5, Na pyruvate 2.5, gentamicin (50 ug/ml), adjusted to pH 7.0 with NaOH. […] Whole cell agonist-induced currents were measured 1–14 days after injection with a conventional two-electrode voltage clamp (GeneClamp500, Axon Instruments, Foster City, Calif.) using standard methods previously described and known in the art (Dascal, 1987). […]

On to `NCCc1c[nH]c2ccc(O)cc12` [5-HT, 5-hydroxytryptamine], for which the “sensitivity of oocytes to neuroactive compound” value on human 5-HT3-C (>100 μM, only 5-HT3-C cRNA (33.5 ng), n=5) is “insensitive”. Also, at human 5-HT3-C (≧100 μM, 33.5 ng or 3.35 ng 5-HT3-C cRNA/oocyte), the “effect of agonist (agonist-induced current)” value is recorded as “no effect”. Further, the “sensitivity of oocytes to agonist” value in test [1] is listed as “insensitive”.
